# Patent US12692254B2, “Benzimidazole inhibitors of PAD enzymes” (BRISTOL-MYERS SQUIBB COMPANY, priority 2018, dated 2026)
# pIC50: −log10 of the molar value.
# Biological target: human PAD4 (hPAD4) (Homo sapiens, UniProt Q9UM07)
# Experiment: RFMS human PAD4 functional assay (rapid-fire mass spectrum)
# Type: biochemical
# Conditions: 5 nM hPAD4 enzyme, 250 μM BAEE, 50 μM Calcium; 30 min preincubation, 90 min reaction at 37° C.
# In short: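 PAD4 (10 nM) preincubated 30 min with compound (top final 50 μM), then BAEE substrate added in pH 7.5 HEPES buffer with DTT, 50 μM calcium, TPEN; 90 min at 37° C. After TCA quench, citrulline derivatized with phenyl glyoxal (4 mM final, 30 min, 37° C) and quantified by RapidFire MS against internal standard.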
# human PAD4 (hPAD4), sequence (Q9UM07 whole entry): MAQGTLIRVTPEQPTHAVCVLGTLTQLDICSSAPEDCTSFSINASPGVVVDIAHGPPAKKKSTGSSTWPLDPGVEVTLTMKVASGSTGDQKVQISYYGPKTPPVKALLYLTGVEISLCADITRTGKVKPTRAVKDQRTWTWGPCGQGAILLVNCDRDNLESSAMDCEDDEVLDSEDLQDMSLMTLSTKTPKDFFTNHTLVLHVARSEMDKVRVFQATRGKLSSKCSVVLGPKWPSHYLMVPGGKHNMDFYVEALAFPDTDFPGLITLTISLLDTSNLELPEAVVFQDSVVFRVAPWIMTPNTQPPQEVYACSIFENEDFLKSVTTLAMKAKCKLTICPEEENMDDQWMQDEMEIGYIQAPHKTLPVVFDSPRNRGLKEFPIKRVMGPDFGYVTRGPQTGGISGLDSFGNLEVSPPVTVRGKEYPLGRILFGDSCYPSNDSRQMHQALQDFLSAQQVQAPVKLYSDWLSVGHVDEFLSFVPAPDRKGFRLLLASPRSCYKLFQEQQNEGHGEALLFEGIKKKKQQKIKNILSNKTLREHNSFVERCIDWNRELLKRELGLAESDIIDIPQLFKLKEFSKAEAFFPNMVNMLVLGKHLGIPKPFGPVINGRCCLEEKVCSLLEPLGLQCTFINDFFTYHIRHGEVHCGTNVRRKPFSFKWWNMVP
row,SMILES,pIC50
1,"COc1cc(C(=O)N2C[C@H]3CC[C@@H]2[C@@H]3N)cc2nc(-c3cc4ccccc4n3CC3CC3)n(C[C@H]3CCN(c4cncc(C#N)n4)C3)c12 [Example 196, 6-[(3S)-3-({5-[(1R,4R,7R)-7-amino-2-azabicyclo[2.2.1]heptane-2-carbonyl]-2-[1-(cyclopropylmethyl)-1H-indol-2-yl]-7-methoxy-1H-1,3-benzodiazol-1-yl}methyl)pyrrolidin-1-yl]pyrazine-2-carbonitrile]",7.80
2,"COc1cc(C(=O)N2C[C@H]3CC[C@@H]2[C@@H]3N)cc2nc(-c3cc4cccnc4n3CC3CC3)n(CC3CCN(C(=O)c4ccnc(F)c4)CC3)c12 [Example 197, (1R,4R,7R)-2-{2-[1-(cyclopropylmethyl)-1H-pyrrolo[2,3-b]pyridin-2-yl]-1-{[1-(2-fluoropyridine-4-carbonyl)piperidin-4-yl]methyl}-7-methoxy-1H-1,3-benzodiazole-5-carbonyl}-2-azabicyclo[2.2.1]heptan-7-amine]",6.93
3,"COc1cc(C(=O)N2C[C@H]3CC[C@@H]2[C@@H]3N)cc2nc(-c3cc4cccnc4n3CC3CC3)n(CC3CCN(C(=O)c4ccnc(Cl)c4)CC3)c12 [Example 198, (1R,4R,7R)-2-(1-{[1-(2-chloropyridine-4-carbonyl)piperidin-4-yl]methyl}-2-[1-(cyclopropylmethyl)-1H-pyrrolo[2,3-b]pyridin-2-yl]-7-methoxy-1H-1,3-benzodiazole-5-carbonyl)-2-azabicyclo[2.2.1]heptan-7-amine]",6.88
4,"COc1cc(C(=O)N2C[C@H]3CC[C@@H]2[C@@H]3N)cc2nc(-c3cc4cccnc4n3CC3CC3)n(CC3CCN(C(=O)c4ccnc(C)n4)CC3)c12 [Example 199, (1R,4R,7R)-2-{2-[1-(cyclopropylmethyl)-1H-pyrrolo[2,3-b]pyridin-2-yl]-7-methoxy-1-{[1-(2-methylpyrimidine-4-carbonyl)piperidin-4-yl]methyl}-1H-1,3-benzodiazole-5-carbonyl}-2-azabicyclo[2.2.1]heptan-7-amine]",6.79
5,"COc1cc(C(=O)N2CC3CCC2[C@@H]3N)cc2nc(-c3cc4cccnc4n3CC3CC3)n(CC3CCN(C(=O)c4ccnc(C#N)c4)CC3)c12 (stereo partly drawn) [Example 200, 4-[4-({5-[(1R,4R,7R)-7-amino-2-azabicyclo[2.2.1]heptane-2-(cyclopropylmethyl)-1H-pyrrolo[2,3-b]pyridin-2-yl]-7-methoxy-1H-1,3-benzodiazol-1-yl}methyl)piperidine-1-carbonyl]pyridine-2-carbonitrile]",6.70
6,"COc1cc(C(=O)N2CC3CCC2C3N)cc2nc(-c3cc4cccnc4n3CC3CC3)n(CC3CCN(C(=O)c4ccc(C#N)cc4)C3)c12 [Example 201, 4-[(3S)-3-({5-[(1R,4R,7R)-7-amino-2-azabicyc1o[2.2.1]heptane-2-carbonyl]-2-[1-(cyclopropylmethyl)-1H-pyrrolo[2,3-b]pyridin-2-yl]-7-methoxy-1H-1,3-benzodiazol-1-yl}methyl)pyrrolidine-1-carbonyl]benzonitrile]",7.74
7,"COc1cc(C(=O)N2C[C@H]3CC[C@@H]2[C@@H]3N)cc2nc(-c3cc4cccnc4n3CC3CC3)n(C[C@H]3CCN(c4nccnc4C#N)C3)c12 [Example 202, 3-[(3S)-3-({5-[(1R,4R,7R)-7-amino-2-azabicyclo[2.2.1]heptane-2-carbonyl]-2-[1-(cyclopropylmethyl)-1H-pyrrolo[2,3-b]pyridin-2-yl]-7-methoxy-1H-1,3-benzodiazol-1-yl}methyl)pyrrolidin-1-yl]pyrazine-2-carbonitrile]",7.68
8,"COc1cc(C(=O)N2C[C@H]3CC[C@@H]2[C@@H]3N)cc2nc(-c3cc4cccnc4n3CC3CC3)n(C[C@H]3CCN(c4cncc(C#N)n4)C3)c12 [Example 203, 6-[(3S)-3-({5-[(1R,4R,7R)-7-amino-2-azabicyclo[2.2.1]heptane-2-carbonyl]-2-[1-(cyclopropylmethyl)-1H-pyrrolo[2,3-b]pyridin-2-yl]-7-methoxy-1H-1,3-benzodiazol-1-yl}methyl)pyrrolidin-1-yl]pyrazine-2-carbonitrile]",7.64
9,"COc1cc(C(=O)N2C[C@H]3CC[C@@H]2[C@@H]3N)cc2nc(-c3cc4cccnc4n3CC3CC3)n(C[C@H]3CCN(c4ccnc(C#N)n4)C3)c12 [Example 204, 4-[(3S)-3-({5-[(1R,4R,7R)-7-amino-2-azabicyclo[2.2.1]heptane-2-carbonyl]-2-[1-(cyclopropylmethyl)-1H-pyrrolo[2,3-b]pyridin-2-yl]-7-methoxy-1H-1,3-benzodiazol-1-yl}methyl)pyrrolidin-1-yl]pyrimidine-2-carbonitrile]",7.46
10,"COc1cc(C(=O)N2CC3CCC2[C@@H]3N)cc2nc(-c3cc4cccnc4n3CC3CC3)n(C[C@@H]3CCN(c4ccnc(C#N)n4)C3)c12 (stereo partly drawn) [Example 205, 4-[(3R)-3-({5-[(1R,4R,7R)-7-amino-2-azabicyclo[2.2.1]heptane-2-carbonyl]-2-[1-(cyclopropylmethyl)-1H-pyrrolo[2,3-b]pyridin-2-yl]-7-methoxy-1H-1,3-benzodiazol-1-yl}methyl)pyrrolidin-l-yl]pyrimidine-2-carbonitrile]",7.43
11,"COc1cc(C(=O)N2C[C@H]3CC[C@@H]2[C@@H]3N)cc2nc(-c3cc4cccnc4n3CC3CC3)n(C[C@H]3CCN(c4cncnc4C#N)C3)c12 [Example 206, 5-[(3S)-3-({5-[(1R,4R,7R)-7-amino-2-azabicyclo[2.2.1]heptane-2-carbonyl]-2-[1-(cyclopropylmethyl)-1H-pyrrolo[2,3-b]pyridin-2-yl]-7-methoxy-1H-1,3-benzodiazol-1-yl}methyl)pyrrolidin-1-yl]pyrimidine-4-carbonitrile]",7.33
12,"COc1cc(C(=O)N2C[C@H]3CC[C@@H]2[C@@H]3N)cc2nc(-c3cc4cccnc4n3CC3CC3)n(C[C@@H]3CCN(c4cncc(C#N)n4)C3)c12 [Example 207, 6-[(3R)-3-({5-[(1R,4R,7R)-7-amino-2-azabicyclo[2.2.1]heptane-2-carbonyl]-2-[1-(cyclopropylmethyl)-1H-pyrrolo[2,3-b]pyridin-2-yl]-7-methoxy-1H-1,3-benzodiazol-1-yl}methyl)pyrrolidin-1-yl]pyrazine-2-carbonitrile]",7.24
13,"COc1cc(C(=O)N2C[C@H]3CC[C@@H]2[C@@H]3N)cc2nc(-c3cc4cccnc4n3CC3CC3)n(C[C@H]3CCN(c4ccnc(C)n4)C3)c12 [Example 208, ((1R,4R,7R)-7-amino-2-azabicyclo[2.2.1]heptan-2-yl)(2-(1-(cyclopropylmethyl)-1H-pyrrolo[2,3-b]pyridin-2-yl)-7-methoxy-1-(((S)-1-(2-methylpyrimidin-4-yl)pyrrolidin-3-yl)methyl)-1H-benzo[d]imidazol-5-yl)methanone]",7.60
14,"COc1cc(C(=O)N2C[C@H]3CC[C@@H]2[C@@H]3N)cc2nc(-c3cc4cccnc4n3C)n(C[C@H]3CCN(c4ccnc(C5CC5)n4)C3)c12 [Example 209, (1R,4R,7R)-2-(1-{[(3S)-1-(2-cyclopropylpyrimidin-4-yl)pyrrolidin-3-yl]methyl}-7-methoxy-2-{1-methyl-1H-pyrrolo[2,3-b]pyridin-2-yl}-1H-1,3-benzodiazole-5-carbonyl)-2-azabicyclo[2.2.1]heptan-7-amine]",7.21
15,"COc1cc(C(=O)N2C[C@H]3CC[C@@H]2[C@@H]3N)cc2nc(-c3cc4cccnc4n3C)n(C[C@H]3CCN(c4ccnc(C#N)n4)C3)c12 [Example 210, 4-[(3S)-3-({5-[(1R,4R,7R)-7-amino-2-azabicyclo[2.2.1]heptane-2-carbonyl]-7-methoxy-2-{1-methyl-1H-pyrrolo[2,3-b]pyridin-2-yl}-1H-1,3-benzodiazol-1-yl}methyl)pyrrolidin-1-yl]pyrimidine-2-carbonitrile]",7.12
16,"COc1cc(C(=O)N2C[C@H]3CC[C@@H]2[C@@H]3N)cc2nc(-c3cc4cccnc4n3CC3CC3)n(C[C@@H]3CCN(c4cncc(C#N)c4)C3)c12 [Example 211, 5-[(3R)-3-({5-[(1R,4R,7R)-7-amino-2-azabicyclo[2.2.1]heptane-2-carbonyl]-2-[1-(cyclopropylmethyl)-1H-pyrrolo[2,3-b]pyridin-2-yl]-7-methoxy-1H-1,3-benzodiazol-1-yl}methyl)pyrrolidin-1-yl]pyridine-3-carbonitrile]",7.10
17,"COc1cc(C(=O)N2CC3CCC2[C@@H]3N)cc2nc(-c3cc4cccnc4n3CC3CC3)n(C[C@@H]3CCN(c4nccnc4C#N)C3)c12 (stereo partly drawn) [Example 212, 3-[(3R)-3-({5-[(1R,4R,7R)-7-amino-2-azabicyclo[2.2.1]heptane-2-carbonyl]-2-[1-(cyclopropylmethyl)-1H-pyrrolo[2,3-b]pyridin-2-yl]-7-methoxy-1H-1,3-benzodiazol-1-yl}methyl)pyrrolidin-1-yl]pyrazine-2-carbonitrite]",7.09
18,"COc1cc(C(=O)N2C[C@H]3CC[C@@H]2[C@@H]3N)cc2nc(-c3cc4cccnc4n3C)n(C[C@H]3CCN(c4ccnc(C)n4)C3)c12 [Example 213, (1R,4R,7R)-2-(7-methoxy-2-{1-methyl-1H-pyrrolo[2,3-b]pyridin-2-yl}-1-{[(3S)-1-(2-methylpyrimidin-4-yl)pyrrolidin-3-yl]methyl}-1H-1,3-benzodiazole-5-carbonyl)-2-azabicyclo[2.2.1]heptan-7-amine]",7.00
19,"COc1cc(C(=O)N2C[C@H]3CC[C@@H]2[C@@H]3N)cc2nc(-c3cc4cccnc4n3CC3CC3)n(C[C@@H]3CCN(c4cncnc4C#N)C3)c12 [Example 214, 5-[(3R)-3-({5-[(1R,4R,7R)-7-amino-2-azabicyclo[2.2.1]heptane-2-carbonyl]-2-[1-(cyclopropylmethyl)-1H-pyrrolo[2,3-b]pyridin-2-yl]-7-methoxy-1H-1,3-benzodiazol-1-yl}methyl)pyrrolidin-1-yl]pyrimidine-4-carbonitrile]",6.94
